Values quoted from earlier work as cited in publication PMC4447334 (Journal of the American Chemical Society, 2015).

Tests used:
PAD3 = target: T1, PAD3 (Homo sapiens, UniProt Q9ULW8); settings: exact value reported
T1 sequence (Q9ULW8 1-664): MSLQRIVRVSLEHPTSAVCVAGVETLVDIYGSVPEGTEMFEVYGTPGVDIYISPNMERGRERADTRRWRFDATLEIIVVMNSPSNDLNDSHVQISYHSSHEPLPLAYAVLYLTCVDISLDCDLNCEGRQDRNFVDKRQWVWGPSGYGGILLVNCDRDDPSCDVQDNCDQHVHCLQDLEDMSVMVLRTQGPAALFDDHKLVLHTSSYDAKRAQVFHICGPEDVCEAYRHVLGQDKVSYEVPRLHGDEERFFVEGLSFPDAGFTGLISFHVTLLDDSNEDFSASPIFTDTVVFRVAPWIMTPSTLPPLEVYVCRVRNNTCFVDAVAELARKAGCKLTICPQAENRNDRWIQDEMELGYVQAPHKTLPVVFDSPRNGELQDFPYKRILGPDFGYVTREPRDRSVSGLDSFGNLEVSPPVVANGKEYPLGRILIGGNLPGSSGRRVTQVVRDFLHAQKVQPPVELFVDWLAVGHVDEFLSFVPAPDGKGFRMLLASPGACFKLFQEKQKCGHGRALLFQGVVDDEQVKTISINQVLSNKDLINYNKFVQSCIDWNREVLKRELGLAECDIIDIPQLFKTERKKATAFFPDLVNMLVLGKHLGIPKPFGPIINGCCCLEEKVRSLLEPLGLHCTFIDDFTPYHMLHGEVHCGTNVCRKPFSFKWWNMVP

PAD1 = target: T2, PAD1 (Homo sapiens, UniProt Q9ULC6); settings: approximate, from chart in Figure 6A
T2 sequence (Q9ULC6 1-663): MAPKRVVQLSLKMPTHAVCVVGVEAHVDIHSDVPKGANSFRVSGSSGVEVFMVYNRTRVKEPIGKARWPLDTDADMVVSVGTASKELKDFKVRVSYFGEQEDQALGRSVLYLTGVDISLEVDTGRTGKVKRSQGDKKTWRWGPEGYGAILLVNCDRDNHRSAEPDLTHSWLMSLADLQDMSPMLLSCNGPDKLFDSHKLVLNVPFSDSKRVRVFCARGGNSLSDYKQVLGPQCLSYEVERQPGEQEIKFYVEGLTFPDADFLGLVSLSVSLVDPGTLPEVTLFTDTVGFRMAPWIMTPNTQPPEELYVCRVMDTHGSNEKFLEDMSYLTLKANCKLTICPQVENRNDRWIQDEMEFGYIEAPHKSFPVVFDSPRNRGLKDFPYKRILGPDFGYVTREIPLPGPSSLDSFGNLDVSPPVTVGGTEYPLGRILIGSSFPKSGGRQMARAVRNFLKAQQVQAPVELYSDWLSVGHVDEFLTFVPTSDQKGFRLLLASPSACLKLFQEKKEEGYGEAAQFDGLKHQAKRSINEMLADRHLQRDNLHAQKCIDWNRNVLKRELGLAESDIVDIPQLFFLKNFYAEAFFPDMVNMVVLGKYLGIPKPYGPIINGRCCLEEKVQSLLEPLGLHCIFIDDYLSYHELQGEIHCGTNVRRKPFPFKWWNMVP

PAD4 = PAD4 (Homo sapiens, UniProt Q9UM07); settings: approximate, from chart in Figure 6A
Chain of PAD4 (Q9UM07 whole entry): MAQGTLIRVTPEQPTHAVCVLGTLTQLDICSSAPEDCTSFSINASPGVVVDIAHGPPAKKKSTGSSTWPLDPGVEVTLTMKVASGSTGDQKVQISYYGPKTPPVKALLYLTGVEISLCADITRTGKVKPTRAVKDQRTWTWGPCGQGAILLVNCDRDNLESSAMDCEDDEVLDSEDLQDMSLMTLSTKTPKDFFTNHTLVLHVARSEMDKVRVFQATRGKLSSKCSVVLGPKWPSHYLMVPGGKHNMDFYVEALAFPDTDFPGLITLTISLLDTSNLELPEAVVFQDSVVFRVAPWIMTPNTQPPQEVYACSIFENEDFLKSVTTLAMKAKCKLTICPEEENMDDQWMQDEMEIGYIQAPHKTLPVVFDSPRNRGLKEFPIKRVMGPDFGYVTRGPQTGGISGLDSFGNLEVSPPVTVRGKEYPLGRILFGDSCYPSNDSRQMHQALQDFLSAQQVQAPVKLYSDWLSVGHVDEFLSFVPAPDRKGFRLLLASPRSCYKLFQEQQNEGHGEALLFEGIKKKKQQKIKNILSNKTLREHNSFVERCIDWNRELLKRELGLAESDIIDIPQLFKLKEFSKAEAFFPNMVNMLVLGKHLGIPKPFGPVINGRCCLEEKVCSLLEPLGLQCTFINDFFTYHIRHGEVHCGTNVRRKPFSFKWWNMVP

N=C(CF)NCCCC[C@H](NC(=O)c1ccccc1)C(N)=O [F4-amidine]
IC50 (PAD3): 65 µM
IC50 (PAD1): ~250 µM
IC50 (PAD4): ~625 µM
